Target: T1, prostanoid receptor subtype (mouse EP1) (Mus musculus, UniProt P35375)
T1 construct: expressed in transfected cells; host or cells: CHO cells (membrane fraction)
T1 sequence (P35375 1-405): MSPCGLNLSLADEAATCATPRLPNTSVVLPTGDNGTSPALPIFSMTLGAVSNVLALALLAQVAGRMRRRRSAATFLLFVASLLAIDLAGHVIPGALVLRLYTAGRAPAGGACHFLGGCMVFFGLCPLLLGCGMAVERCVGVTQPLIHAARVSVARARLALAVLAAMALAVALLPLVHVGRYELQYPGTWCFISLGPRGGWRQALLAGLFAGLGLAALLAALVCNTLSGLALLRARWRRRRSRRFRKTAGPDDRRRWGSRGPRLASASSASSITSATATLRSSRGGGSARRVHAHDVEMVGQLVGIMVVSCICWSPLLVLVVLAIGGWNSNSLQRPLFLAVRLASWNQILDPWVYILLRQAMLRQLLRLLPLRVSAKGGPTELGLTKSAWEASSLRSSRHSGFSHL
Assay: Binding assay using expression cell of prostanoid receptor subtype (3H-PGE2 competition, CHO cell membrane fraction)
Conditions: membrane fraction of CHO cell expressing mouse EP1; 3H-PGE2 2.5 nM; Ki=IC50/(1+([C]/Kd)); read-out: dissociation constant Ki
Procedure: (i) Binding Assay Using Expression Cell of Prostanoid Receptor Subtype
The preparation of membrane fraction was carried out according to the method of Sugimoto et al (J. Biol. Chem. 267, 6463-6466 (1992)), using expression CHO cell of prostanoid receptor subtype (mouse EP1).
The standard assay mixture contained membrane fraction (0.5 mg/ml), ^3H-PGE2 in a final volume of 200 μl was incubated for 1 hour at room temperature. The reaction was terminated by addition of 3 ml of ice-cold buffer. The mixture was rapidly filtered through a glass filter (GF/B). The radioactivity associated with the filter was measured by liquid scintillation counting.
Kd and Bmax values were determined from Scratchard plots (Ann. N.Y. Acad. Sci. 51, 660 (1949)). Non-specific binding was calculated as the bond in the presence of an excess (2.5 μM) of unlabeled PGE2. In the experiment for competition of specific ^3H-PGE2 was added at a concentration of 2.5 nM and the compound of the present invention was added at a various concentration. The following buffer was used in all reaction.
Buffer: potassium phosphate (pH6.0, 10 mM), EDTA (1 mM), MgCl2 (10 mM), NaCl (0.1M).
The dissociation constant Ki (μM) of each compound was calculated by the following equation.

Row | SMILES | Ki
1 | CC(C)N(c1ccc(C(F)(F)F)cc1N(C)Cc1ccc(C(=O)O)cc1)S(=O)(=O)c1ccccc1 [Example 30, 4-[N-methyl-[2-(N-isopropyl-phenylsulfonylamino)-5-trifluoromethylphenyl]aminomethyl]benzoic acid] | 73 nM
2 | CC(C)N(c1ccc(Cl)cc1OCc1ccc(C(=O)O)cc1)S(=O)(=O)c1cccs1 [18(58), 4-[2-(N-isopropyl-2-thienylsulfonylamino)-5-chlorophenoxymethyl]benzoic acid] | 6.2 nM
3 | O=C(O)c1ccc(NC(=O)c2cc(Br)ccc2NS(=O)(=O)c2ccc(Cl)cc2)cc1 [2(k), 4-[2-(4-chlorophenylsulfonylamino)-5-bromobenzoylamino]benzoic acid] | 99 nM
4 | O=C(O)c1ccc(COc2ncc(C(F)(F)F)cc2NS(=O)(=O)c2ccccc2)cc1 [Example 38, 4-(3-phenylsulfonylamino-5-trifluoromethylpyridine-2-yloxymethyl)benzoic acid] | 160 nM
5 | CC(C)N(c1ccc(Cl)cc1OCc1ccc(C(=O)O)o1)S(=O)(=O)c1ccccc1 [24(9), 5-[2-(N-isopropyl-phenylsulfonylamino)-5-chlorophenoxymethyl]furan-2-carboxylic acid] | 18 nM
6 | CC(C)N(c1ccc(C(F)(F)F)cc1OC[C@H]1CC[C@H](C(=O)O)CC1)S(=O)(=O)c1ccccc1 [18(38), trans-4-[2-(N-isopropyl-phenylsulfonylamino)-5-trifluoromethylphenoxymethyl]cyclohexanoic acid] | 16 nM
7 | CC(C)N(c1ccc(C(F)(F)F)cc1/C=C/c1ccc(C(=O)O)cc1)S(=O)(=O)c1ccccc1 [Example 48, 4-[2-[2-(N-isopropyl-phenylsulfonylamino)-5-trifluoromethylphenyl]-(E)-vinyl]benzoic acid] | 10 nM
8 | Cc1ccc(N(C(C)C)S(=O)(=O)CC2CCCC2)c(OCc2ccc(C(=O)O)cc2)c1 [20(20), 4-[2-(N-isopropyl-cyclopentylmethylsulfonylamino)-5-methylphenoxymethyl]benzoic acid] | 9.9 nM
9 | O=C(O)c1ccc(COc2cc(Cl)ccc2NS(=O)(=O)c2ccccc2)nc1 [22(3), 6-(2-phenylsulfonylamino-5-chlorophenoxymethyl)nicotinic acid] | 480 nM
10 | O=C(O)c1ccc(COc2cc(Cl)ccc2CNS(=O)(=O)c2ccccc2)cc1 [Example 43, 4-(2-phenylsulfonylaminomethyl-5-chlorophenoxymethyl)benzoic acid] | 380 nM

Stronger by Ki, values ahead:

Row | Ki | SMILES
11 | 1.3 nM | CC(C)N(c1ccc(C(F)(F)F)cc1OCc1ccc(C#CC(=O)O)cc1)S(=O)(=O)c1ccccc1 [Example 44, 4-[2-(N-isopropyl-phenylsulfonylamino)-5-trifluoromethylphenoxymethyl]phenylpropiolic acid]
12 | 0.4 nM | CC(C)CN(c1ccc(C(F)(F)F)cc1OCc1ccc(/C=C/C(=O)O)cc1)S(=O)(=O)c1ccco1 [18(94), 4-[2-(N-isobutyl-2-furanylsulfonylamino)-5-trifluoromethylphenoxymethyl]cinnamic acid]
13 | 0.2 nM | CCN(c1ccc(C(F)(F)F)cc1OCc1ccc(/C=C/C(=O)O)cc1)S(=O)(=O)c1ccccc1 [18(102), 4-[2-(N-ethyl-phenylsulfonylamino)-5-trifluoromethylphenoxymethyl]cinnamic acid]
14 | 1.6 nM | O=C(O)c1ccc(COc2cc(C(F)(F)F)ccc2N(C2CCCC2)S(=O)(=O)c2ccccc2)cc1 [18(30), 4-[2-(N-cyclopentyl-phenylsulfonylamino)-5-trifluoromethylphenoxymethyl]benzoic acid]
15 | 5.8 nM | CC(C)N(c1ccc(C(F)(F)F)cc1OCc1ccc(OCC(=O)O)cc1)S(=O)(=O)c1ccccc1 [Example 24, 4-[2-(N-isopropyl-phenylsulfonylamino)-5-trifluoromethylphenoxymethyl]phenoxy acetic acid]
16 | 5.4 nM | CCCS(=O)(=O)N(Cc1ccccc1)c1ccc(C)cc1OCc1ccc(C(=O)O)cc1 [18(75), 4-[2-(N-benzyl-propylsulfonylamino)-5-methylphenoxymethyl]benzoic acid]
